The values below come from patent US11739098B2 (BRISTOL-MYERS SQUIBB COMPANY, priority 2017, dated 2023).

Holding throughout (type): cell-based
One assay concerns the target T1, human TLR7 (Homo sapiens, UniProt Q9NYK1).
T1 construct: host or cells: HEK-Blue cells (HEK293-derived reporter line)
T1 sequence (Q9NYK1 27-1049): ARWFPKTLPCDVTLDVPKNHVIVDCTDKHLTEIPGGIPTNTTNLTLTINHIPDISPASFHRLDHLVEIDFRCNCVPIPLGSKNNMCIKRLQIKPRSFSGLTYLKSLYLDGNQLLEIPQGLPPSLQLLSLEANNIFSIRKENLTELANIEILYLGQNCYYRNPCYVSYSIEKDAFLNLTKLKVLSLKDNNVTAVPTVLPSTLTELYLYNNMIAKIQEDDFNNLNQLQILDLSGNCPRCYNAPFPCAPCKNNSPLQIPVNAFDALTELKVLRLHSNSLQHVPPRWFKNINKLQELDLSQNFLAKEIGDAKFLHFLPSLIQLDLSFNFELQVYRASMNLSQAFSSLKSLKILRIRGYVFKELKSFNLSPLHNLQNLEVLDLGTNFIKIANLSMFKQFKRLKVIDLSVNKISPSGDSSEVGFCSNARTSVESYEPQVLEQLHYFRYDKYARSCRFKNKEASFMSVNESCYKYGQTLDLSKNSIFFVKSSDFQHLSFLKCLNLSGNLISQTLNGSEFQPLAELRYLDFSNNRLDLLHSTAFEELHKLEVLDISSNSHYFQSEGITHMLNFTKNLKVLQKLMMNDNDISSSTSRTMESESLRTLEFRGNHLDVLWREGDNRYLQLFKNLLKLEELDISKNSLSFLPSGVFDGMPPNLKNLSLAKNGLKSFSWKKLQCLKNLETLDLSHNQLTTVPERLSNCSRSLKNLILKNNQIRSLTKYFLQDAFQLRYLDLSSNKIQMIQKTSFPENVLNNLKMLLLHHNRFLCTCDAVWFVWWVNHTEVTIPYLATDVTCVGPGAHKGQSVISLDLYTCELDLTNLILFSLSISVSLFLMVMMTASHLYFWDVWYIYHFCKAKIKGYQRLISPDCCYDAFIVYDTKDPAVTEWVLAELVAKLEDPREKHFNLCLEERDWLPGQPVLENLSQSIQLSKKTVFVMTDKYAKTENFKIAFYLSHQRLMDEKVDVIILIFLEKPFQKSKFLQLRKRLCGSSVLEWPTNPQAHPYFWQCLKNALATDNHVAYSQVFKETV
Briefly: TLR7 inhibition reporter assay (HEK-Blue cells, SEAP reporter, gardiquimod stimulation). The conditions noted are these: HEK-Blue cells overexpressing human TLR7, SEAP reporter, gardiquimod 7.5 μM. The gist of the method:
(§1)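 Read-out is SEAP activity in HEK-Blue detection medium after 22 h at 37 °C, converted to percent inhibition against agonist-plus-DMSO and reference-inhibitor controls. Cells saw compound (0.05 nM–50 μM, 30 min, room temperature) before gardiquimod 7.5 μM, R848 15.9 μM or ODN2006 5 nM for TLR7, TLR8 and TLR9, respectively.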
(In general: A reporter such as luciferase makes a cellular process visible.)

For another assay, the target named is T2, human TLR8 (Homo sapiens, UniProt Q9NR97).
T2 construct: host or cells: HEK-Blue cells (HEK293-derived reporter line)
T2 sequence (Q9NR97 27-1041): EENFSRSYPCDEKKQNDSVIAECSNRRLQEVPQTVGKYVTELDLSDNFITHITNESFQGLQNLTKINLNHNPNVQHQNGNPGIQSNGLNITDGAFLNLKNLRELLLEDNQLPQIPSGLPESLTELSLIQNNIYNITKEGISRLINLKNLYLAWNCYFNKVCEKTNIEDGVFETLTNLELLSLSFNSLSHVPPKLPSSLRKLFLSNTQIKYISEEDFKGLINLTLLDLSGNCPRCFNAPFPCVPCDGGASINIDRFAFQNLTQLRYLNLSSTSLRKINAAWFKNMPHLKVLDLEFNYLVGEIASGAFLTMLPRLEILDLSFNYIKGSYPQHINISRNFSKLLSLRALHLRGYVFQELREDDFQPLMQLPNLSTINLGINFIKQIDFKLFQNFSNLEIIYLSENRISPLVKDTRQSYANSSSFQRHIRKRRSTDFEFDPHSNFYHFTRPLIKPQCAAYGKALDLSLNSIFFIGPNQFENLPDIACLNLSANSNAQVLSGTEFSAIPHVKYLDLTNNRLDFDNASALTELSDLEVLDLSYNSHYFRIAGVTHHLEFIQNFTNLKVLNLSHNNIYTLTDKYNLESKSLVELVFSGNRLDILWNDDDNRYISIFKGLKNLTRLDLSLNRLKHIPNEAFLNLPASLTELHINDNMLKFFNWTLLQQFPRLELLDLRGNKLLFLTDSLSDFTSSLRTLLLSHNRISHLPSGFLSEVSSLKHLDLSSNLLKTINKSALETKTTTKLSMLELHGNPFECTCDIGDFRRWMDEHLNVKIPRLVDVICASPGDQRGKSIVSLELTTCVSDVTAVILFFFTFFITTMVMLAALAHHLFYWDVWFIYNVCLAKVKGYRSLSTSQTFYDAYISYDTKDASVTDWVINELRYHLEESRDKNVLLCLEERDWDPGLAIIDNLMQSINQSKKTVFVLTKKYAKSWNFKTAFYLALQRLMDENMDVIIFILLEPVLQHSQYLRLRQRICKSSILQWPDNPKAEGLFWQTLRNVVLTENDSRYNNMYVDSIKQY
The assay can be described thus: TLR8 inhibition reporter assay (HEK-Blue cells, SEAP reporter, R848 stimulation). To be noted: HEK-Blue cells overexpressing human TLR8, SEAP reporter, R848 15.9 μM. In short, it runs like this:
as §1

The next assay addresses T3, human TLR9 (Homo sapiens, UniProt Q9NR96).
T3 construct: host or cells: HEK-Blue cells (HEK293-derived reporter line)
T3 sequence (Q9NR96 26-1032): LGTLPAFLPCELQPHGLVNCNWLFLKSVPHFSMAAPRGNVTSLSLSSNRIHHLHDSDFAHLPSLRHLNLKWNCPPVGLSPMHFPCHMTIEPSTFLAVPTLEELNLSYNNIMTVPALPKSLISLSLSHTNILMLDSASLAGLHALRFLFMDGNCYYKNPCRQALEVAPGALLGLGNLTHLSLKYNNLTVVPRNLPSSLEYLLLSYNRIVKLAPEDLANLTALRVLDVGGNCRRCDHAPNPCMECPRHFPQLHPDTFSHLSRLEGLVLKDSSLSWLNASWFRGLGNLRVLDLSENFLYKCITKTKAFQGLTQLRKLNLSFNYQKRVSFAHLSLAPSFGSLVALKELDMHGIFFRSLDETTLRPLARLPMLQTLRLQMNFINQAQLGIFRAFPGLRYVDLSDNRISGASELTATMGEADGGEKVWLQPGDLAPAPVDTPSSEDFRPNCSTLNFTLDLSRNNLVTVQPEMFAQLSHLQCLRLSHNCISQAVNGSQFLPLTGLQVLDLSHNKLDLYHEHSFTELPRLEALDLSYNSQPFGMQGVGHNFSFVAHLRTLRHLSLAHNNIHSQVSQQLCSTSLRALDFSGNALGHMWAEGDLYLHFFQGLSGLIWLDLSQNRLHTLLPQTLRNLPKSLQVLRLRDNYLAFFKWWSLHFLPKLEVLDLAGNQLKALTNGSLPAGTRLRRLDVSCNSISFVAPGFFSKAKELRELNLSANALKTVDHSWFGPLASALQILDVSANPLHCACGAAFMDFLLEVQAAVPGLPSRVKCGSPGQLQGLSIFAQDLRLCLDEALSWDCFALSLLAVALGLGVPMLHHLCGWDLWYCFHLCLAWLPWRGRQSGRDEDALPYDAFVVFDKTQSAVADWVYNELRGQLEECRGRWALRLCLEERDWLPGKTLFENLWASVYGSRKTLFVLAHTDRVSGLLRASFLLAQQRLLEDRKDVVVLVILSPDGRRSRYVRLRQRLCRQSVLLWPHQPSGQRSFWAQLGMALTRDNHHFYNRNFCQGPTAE
The assay can be described thus: TLR9 inhibition reporter assay (HEK-Blue cells, SEAP reporter, ODN2006 stimulation). The conditions noted are these: HEK-Blue cells overexpressing human TLR9, SEAP reporter, ODN2006 5 nM. The gist of the method:
as §1

Usually IC50 stands for the concentration that gives 50% inhibition. Low values mean greater potency, high ones weaker potency. For `Cc1cc(-c2[nH]c3ccc(C4CCN(CC(C)(C)O)CC4)cc3c2C(C)C)cc2cnn(C)c12` [Example 762, 1-(4-(2-(1,7-dimethyl-1H-indazol-5-yl)-3-isopropyl-1H-indol-5-yl)piperidin-1-yl)-2-methylpropan-2-ol], the IC50 lay in the range of 0.1 to 1 µM on human TLR7, 0.1 to 1 µM on human TLR8 and 1 to 50 µM against human TLR9.
For the compound `Cc1c(-c2[nH]c3ccc(C4CCN(CC(C)(C)O)CC4)cc3c2C(C)C)ccc2c1cnn2C` [Example 763, 1-(4-(2-(1,4-dimethyl-1H-indazol-5-yl)-3-isopropyl-1H-indol-5-yl)piperidin-1-yl)-2-methylpropan-2-ol], the IC50 was less than 0.1 µM against human TLR7, less than 0.1 µM against human TLR8 and 1 to 50 µM against human TLR9.
In the case of `CC(C)c1c(-c2cnc3c(cnn3C)c2)[nH]c2ccc(C3CCN(CC(C)(C)O)CC3)cc12` [Example 764, 1-(4-(3-isopropyl-2-(1-methyl-1H-pyrazolo[3,4-b]pyridin-5-yl)-1H-indol-5-yl)piperidin-1-yl)-2-methylpropan-2-ol], the results for the half-maximal inhibitory concentration (IC50) at human TLR7, against human TLR8 and against human TLR9 were less than 0.1 µM, less than 0.1 µM and 1 to 50 µM, respectively.
With `CC(C)c1c(-c2cnc3nn(C)cc3c2)[nH]c2ccc(C3CCN(CC(C)(C)O)CC3)cc12` [Example 765, 1-(4-(3-isopropyl-2-(2-methyl-2H-pyrazolo[3,4-b]pyridin-5-yl)-1H-indol-5-yl)piperidin-1-yl)-2-methylpropan-2-ol], the results for the IC50 against human TLR7, on human TLR8 and at human TLR9 were 0.1 to 1 µM, 1 to 50 µM and 1 to 50 µM, respectively.
As to `CC(C)c1c(-c2ccc(C#N)c3ncccc23)[nH]c2ccc(C3CCN(CC(C)(C)O)CC3)cc12` [Example 766, 5-(5-(1-(2-hydroxy-2-methylpropyl)piperidin-4-yl)-3-isopropyl-1H-indol-2-yl)quinoline-8-carbonitrile], the IC50 against human TLR7 is less than 0.1 µM; against human TLR8, less than 0.1 µM; at human TLR9 it was 1 to 50 µM.
On to `CC(C)c1c(-c2cc(Cl)c3ncccc3c2)[nH]c2ccc(C3CCN(CC(C)(C)O)CC3)cc12` [Example 767, 1-(4-(2-(8-chloroquinolin-6-yl)-3-isopropyl-1H-indol-5-yl)piperidin-1-yl)-2-methylpropan-2-ol], for which the IC50 against human TLR7 was less than 0.1 µM; at human TLR8 it was less than 0.1 µM; at human TLR9, 1 to 50 µM.
With `Cc1nc2c(-c3[nH]c4ccc(C5CCN(CC(C)(C)O)CC5)cc4c3C(C)C)ccc(C)n2n1` [Example 768, 1-(4-(2-(2,5-dimethyl-[1,2,4]triazolo[1,5-a]pyridin-8-yl)-3-isopropyl-1H-indol-5-yl)piperidin-1-yl)-2-methylpropan-2-ol], the IC50 against human TLR7 is more than 3.13 µM; against human TLR8 it was 1 to 50 µM; against human TLR9, 1 to 50 µM.
With `Cc1ccc(-c2[nH]c3ccc(C4CCN(CC(C)(C)O)CC4)cc3c2C(C)C)c2ncnn12` [Example 769, 1-(4-(3-isopropyl-2-(5-methyl-[1,2,4]triazolo[1,5-a]pyridin-8-yl)-1H-indol-5-yl)piperidin-1-yl)-2-methylpropan-2-ol], the concentration for half-maximal inhibition (IC50) at human TLR7 was less than 0.1 µM; on human TLR8, less than 0.1 µM; on human TLR9, 1 to 50 µM.
For `Cc1cc2cc(-c3[nH]c4ccc(C5CCN(CC(C)(C)O)CC5)cc4c3C(C)C)cc(CC(C)C)n2n1` [Example 770, 1-(4-(2-(7-isobutyl-2-methylpyrazolo[1,5-a]pyridin-5-yl)-3-isopropyl-1H-indol-5-yl)piperidin-1-yl)-2-methylpropan-2-ol], the IC50 against human TLR7 was more than 3.13 µM; at human TLR8, more than 3.13 µM; against human TLR9, 1 to 50 µM.
As for `Cc1cc(-c2[nH]c3ccc(C4CCN(CC(C)(C)O)CC4)cc3c2C(C)C)cc2cccnc12` [Example 771, 1-(4-(3-isopropyl-2-(8-methylquinolin-6-yl)-1H-indol-5-yl)piperidin-1-yl)-2-methylpropan-2-ol], the IC50 is less than 0.1 µM at human TLR7, less than 0.1 µM against human TLR8 and 1 to 50 µM against human TLR9.
`Cc1c(-c2[nH]c3ccc(C4CCN(CC(C)(C)O)CC4)cc3c2C(C)C)cn2ccnc2c1Cl` [Example 772, 1-(4-(2-(8-chloro-7-methylimidazo[1,2-a]pyridin-6-yl)-3-isopropyl-1H-indol-5-yl)piperidin-1-yl)-2-methylpropan-2-ol]: the IC50 was less than 0.1 µM against human TLR7, less than 0.1 µM on human TLR8 and 1 to 50 µM against human TLR9.
`CC(C)c1c(-c2cnc3ncnn3c2)[nH]c2ccc(C3CCN(CC(C)(C)O)CC3)cc12` [Example 773, 1-(4-(2-([1,2,4]triazolo[1,5-a]pyrimidin-6-yl)-3-isopropyl-1H-indol-5-yl)piperidin-1-yl)-2-methylpropan-2-ol]: the IC50 against human TLR7 is 0.1 to 1 µM; against human TLR8, less than 0.1 µM; against human TLR9, 1 to 50 µM.
